Assay [1] concerns the target Cyclin-dependent kinase/G2/mitotic-specific cyclin- 1 (Homo sapiens, UniProt P06493). Description: CDK1/Cyclin B Kinase SPA Assay. The conditions noted are these: pH 8; 30 °C. As to the method:
The biochemical activity of compounds was determined by incubation with specific enzyme and substrate in the presence 0.5 uM ATP/ [gamma-33P] ATP. After incubation, the reaction was stopped and the phosphorylated substrate was separated from nonincorporated radioactive ATP using Streptavidin-coated SPA beads, counted using TopCount (Packard) to measure substrate-incorporated phosphate.

The target of assay [2] is Cyclin-dependent kinase 4/G1/S-specific cyclin-D1 (Homo sapiens, UniProt P11802). The assay can be described thus: CDK2/Cyclin E and CDK4/Cyclin D1 Kinase Assay. The conditions noted are these: pH 7.5; 30 °C. The procedure:
(§1) The enzyme was assayed with substrate GST-Rb in the presence of 10 uM ATP/[gamma-33P] ATP, and capturing the 33-P labeled reaction products on GSH-Sepharose beads. […] Use of 33P-labeled ATP allows this transfer to be monitored by scintillation counting.

In assay [3] the target is Cyclin-dependent kinase 2/G1/S-specific cyclin-E1 (Homo sapiens, UniProt P24941). Description: CDK2/Cyclin E and CDK4/Cyclin D1 Kinase Assay. The conditions noted are these: pH 7.5; 30 °C. As to the method: as §1

In BindingDB's records for doi:10.1021/jm001043t (Lawrence Berkeley National Laboratory, 2001) one finds IC50 data, which are given here for 1 compound.

Cyclin-dependent kinase 4/G1/S-specific cyclin-D1, sequence (P11802 whole entry): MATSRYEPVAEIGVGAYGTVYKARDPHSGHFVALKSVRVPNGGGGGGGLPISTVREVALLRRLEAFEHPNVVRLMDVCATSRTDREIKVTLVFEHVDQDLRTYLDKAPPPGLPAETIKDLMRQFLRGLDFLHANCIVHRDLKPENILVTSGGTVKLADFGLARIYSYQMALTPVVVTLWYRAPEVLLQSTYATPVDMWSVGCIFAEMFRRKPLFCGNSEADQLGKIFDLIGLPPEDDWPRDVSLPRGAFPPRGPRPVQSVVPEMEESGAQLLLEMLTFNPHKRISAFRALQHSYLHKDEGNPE
Cyclin-dependent kinase 4/G1/S-specific cyclin-D1, sequence (P24385 whole entry, further chain): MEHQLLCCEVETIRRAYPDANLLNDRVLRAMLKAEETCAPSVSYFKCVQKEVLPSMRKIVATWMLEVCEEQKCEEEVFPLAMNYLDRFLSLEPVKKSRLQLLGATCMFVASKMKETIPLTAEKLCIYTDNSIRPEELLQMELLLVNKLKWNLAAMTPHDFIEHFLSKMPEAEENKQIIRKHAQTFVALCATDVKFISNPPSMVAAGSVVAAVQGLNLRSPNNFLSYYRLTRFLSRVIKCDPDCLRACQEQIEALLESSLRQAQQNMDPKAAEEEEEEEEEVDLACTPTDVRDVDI
Cyclin-dependent kinase/G2/mitotic-specific cyclin- 1, sequence (P06493 whole entry): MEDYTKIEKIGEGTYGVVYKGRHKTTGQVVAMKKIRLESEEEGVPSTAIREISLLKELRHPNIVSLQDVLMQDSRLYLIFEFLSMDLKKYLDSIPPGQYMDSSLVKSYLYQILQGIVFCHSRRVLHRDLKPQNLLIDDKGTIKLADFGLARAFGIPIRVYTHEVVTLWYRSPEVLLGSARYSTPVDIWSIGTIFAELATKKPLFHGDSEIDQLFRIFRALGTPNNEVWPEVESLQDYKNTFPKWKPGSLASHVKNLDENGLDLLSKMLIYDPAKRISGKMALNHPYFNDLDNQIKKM
Cyclin-dependent kinase/G2/mitotic-specific cyclin- 1, sequence (P14635 whole entry, further chain): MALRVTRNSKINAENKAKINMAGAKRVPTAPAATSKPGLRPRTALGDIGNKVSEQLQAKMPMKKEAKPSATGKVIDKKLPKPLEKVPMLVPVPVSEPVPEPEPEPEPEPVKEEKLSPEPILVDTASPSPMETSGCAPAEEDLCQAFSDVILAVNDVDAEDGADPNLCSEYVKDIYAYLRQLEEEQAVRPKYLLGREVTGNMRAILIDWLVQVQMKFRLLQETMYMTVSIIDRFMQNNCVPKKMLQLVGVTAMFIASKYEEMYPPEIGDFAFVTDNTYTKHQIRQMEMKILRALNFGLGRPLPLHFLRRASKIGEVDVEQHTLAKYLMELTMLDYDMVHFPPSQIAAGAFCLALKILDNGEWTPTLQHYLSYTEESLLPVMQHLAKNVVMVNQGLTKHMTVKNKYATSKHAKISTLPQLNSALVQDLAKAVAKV

As to `C[C@@H](Nc1nc(N[C@H]2CC[C@H](N)CC2)nc2c1ncn2C1CCCC1)c1ccccc1` [2,6,9-trisubstituted adenine derivative], the values for the IC50 in assay [1], in assay [2] and in assay [3] were 2 µM, 8.8 µM and 0.72 µM, respectively.
